Assay results: publication PMC10387993, “New pyrimidine-N-β-D-glucosides: synthesis, biological evaluation, and molecular docking investigations” (Turkish Journal of Chemistry, 2023)
In brackets after ≈: the same amount, converted by molar mass.

Key:
Format in all cases: cell-based
A549 = experiment: cells; conditions: Homo sapiens; for LC50 (concentration causing 50% net cell loss): A549, read-out: LC50; for GI50 / IC50 / IC (total growth inhibition): A549, MTT; for IC50: read-out: IC50; for IC (total growth inhibition): read-out: TGI
Procedure, shortened: (§1)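 Cells were seeded at about 1 × 10^4 per well, brought to 200 μL with medium, and assessed by MTT: 4 h with MTT reagent, formazan dissolved in DMSO with Sorenson's buffer, absorbance read at 560 nm (690 nm reference). IC50 derived from percent inhibition relative to DMSO.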

C6 (Rat brain glioma) = experiment: cells; conditions: Rattus norvegicus; for LC50 (concentration giving 50% net cell loss relative to time zero): read-out: LC50; for GI50 / IC50 / IC (total growth inhibition): C6, MTT; for IC50: read-out: IC50; for IC (total growth inhibition): read-out: TGI
Procedure, shortened: as §1

HT29 = experiment: cells; conditions: Homo sapiens; for LC50 (concentration giving 50% net cell loss relative to time zero): HT-29, read-out: LC50; for GI50 / IC50 / IC (total growth inhibition): HT-29, HT29, MTT; for IC50: read-out: IC50; for IC (total growth inhibition): read-out: TGI
Procedure, shortened: as §1

HeLa = experiment: cells; conditions: Homo sapiens; for GI50 / IC50 / IC (total growth inhibition): MTT; for IC50: read-out: IC50; for IC (total growth inhibition): read-out: TGI; for LC50 (concentration causing 50% net cell loss): read-out: LC50
Procedure, shortened: as §1

Hep3B = experiment: cells; conditions: Homo sapiens; for GI50 / IC50 / IC (total growth inhibition): MTT; for IC50: read-out: IC50; for IC (total growth inhibition): read-out: TGI; for LC50 (concentration causing 50% net cell loss relative to time zero): read-out: LC50
Procedure, shortened: as §1

[1] = LDH cytotoxic activity assay, A549; conditions: human, A549 cells; for cytotoxicity at 24 h, 25 μg/mL: A549, 25 μg/mL; for cytotoxicity at 24 h, 50 μg/mL: A549, 50 μg/mL; for cytotoxicity at 24 h, 75 μg/mL: A549, 75 μg/mL; for cytotoxicity at 24 h, 100 μg/mL: A549, 100 μg/mL
Description: (§2) The cell lines were cultured in a cell medium (Dulbecco’s modified eagle’s or RPMI 1640) enriched with 10% (v/v) fetal bovine serum and 2% (v/v) Penicillin-Streptomycin (10,000 U/mL). First, old medium was removed out of the flask when the cells reached approximately 80% confluence. Next, cells were taken from the flasks surface using trypsin-EDTA solution and then subjected to centrifugation. Following, the cell pellet was suspended with fresh media and was inoculated into wells.
(§3) Approximately 5 × 10^3 cells in 100 μL were placed into 96-well plates as triplicates and treated with 25, 50, 75, and 100 μg/mL concentrations of test compounds at 37 °C with 5% CO2 for 24 h. LDH activity was obtained by determining absorbance at 492–630 nm using a microplate reader.

[2] = LDH cytotoxic activity assay, Hep3B; conditions: human, Hep3B cells
Description: as §2, §3

[3] = LDH cytotoxic activity assay, MCF7; conditions: human, MCF7 cells; for cytotoxicity at 24 h, 25 μg/mL: MCF7, 25 μg/mL; for cytotoxicity at 24 h, 50 μg/mL: MCF7, 50 μg/mL; for cytotoxicity at 24 h, 75 μg/mL: MCF7, 75 μg/mL
Description: as §2, §3

[4] = LDH cytotoxic activity assay, FL; conditions: human, FL cells (normal cells)
Description: as §2, §3

[5] = as the column head prints, head prints FL

Row | Compound | LC50 (concentration causing 50% net cell loss) (A549) [µg/mL] | GI50 (A549) [µg/mL] | IC50 (A549) [µg/mL] | IC (total growth inhibition) (A549) [µg/mL] | LC50 (concentration giving 50% net cell loss relative to time zero) (C6 (Rat brain glioma)) [µg/mL] | GI50 (C6 (Rat brain glioma)) [µg/mL] | IC50 (C6 (Rat brain glioma)) [µg/mL] | IC (total growth inhibition) (C6 (Rat brain glioma)) [µg/mL] | LC50 (concentration giving 50% net cell loss relative to time zero) (HT29) [µg/mL] | GI50 (HT29) [µg/mL] | IC50 (HT29) [µg/mL] | IC (total growth inhibition) (HT29) [µg/mL] | GI50 (HeLa) [µg/mL] | IC50 (HeLa) [µg/mL] | IC (total growth inhibition) (HeLa) [µg/mL] | LC50 (concentration causing 50% net cell loss) (HeLa) [µg/mL] | GI50 (Hep3B) [µg/mL] | IC50 (Hep3B) [µg/mL] | IC (total growth inhibition) (Hep3B) [µg/mL] | LC50 (concentration causing 50% net cell loss relative to time zero) (Hep3B) [µg/mL] | further results
1 | Cc1cccc(-c2cc(-c3ccccn3)nc(N[C@@H]3O[C@H](CO)[C@@H](O)[C@H](O)[C@H]3O)n2)c1 [Compound 4, N-[4-(3-methylphenyl)-6-pyridin-2-ylpyrimidin-2-yl]-β-D-glucopyranosylamine] | > 500 | 19.4 (≈ 45.8 µM) | > 500 | > 500 | 77.4 (≈ 182 µM) | 8.13 (≈ 19.2 µM) | 27.8 (≈ 65.4 µM) | 20.5 | > 500 | 4.63 (≈ 10.9 µM) | 26.7 (≈ 62.9 µM) | 31.9 | 21.9 (≈ 51.6 µM) | 52.2 (≈ 123 µM) | 46 | 116 (≈ 272 µM) | 4.4 (≈ 10.4 µM) | 65.5 (≈ 154 µM) | 67.8 | > 500 | cytotoxicity at 24 h, 25 μg/mL [1]: 26%; cytotoxicity at 24 h, 50 μg/mL [1]: 33.2%; cytotoxicity at 24 h, 75 μg/mL [1]: 61.7%; cytotoxicity at 24 h, 100 μg/mL [1]: 72.5%; cytotoxicity at 24 h, 25 μg/mL [2]: 19.6%; cytotoxicity at 24 h, 50 μg/mL [2]: 28.9%; cytotoxicity at 24 h, 75 μg/mL [2]: 42%; cytotoxicity at 24 h, 100 μg/mL [2]: 64.8%; cytotoxicity at 24 h, 25 μg/mL [3]: 11.6%; cytotoxicity at 24 h, 50 μg/mL [3]: 22.5%; cytotoxicity at 24 h, 75 μg/mL [3]: 30%; cytotoxicity at 24 h, 25 μg/mL ([4]; FL): 24.4%; cytotoxicity at 24 h, 50 μg/mL ([4]; FL): 32.4%; cytotoxicity at 24 h, 75 μg/mL ([4]; FL): 48.3%; cytotoxicity at 24 h, 100 μg/mL ([4]; FL): 69.5%; cytotoxicity at 24 h, 100 μg/mL [4, 5]: 40.2%
2 | Cc1cccc(-c2cc(-c3cccnc3)nc(N[C@@H]3O[C@H](CO)[C@@H](O)[C@H](O)[C@H]3O)n2)c1 [Compound 5, N-[4-(3-methylphenyl)-6-pyridin-3-ylpyrimidin-2-yl]-β-D-glucopyranosylamine] | > 500 | 23.7 (≈ 55.8 µM) | > 500 | > 500 | 249 (≈ 587 µM) | 4.56 (≈ 10.7 µM) | 33.5 (≈ 78.9 µM) | 18.1 | > 500 | 4.12 (≈ 9.71 µM) | 72.6 (≈ 171 µM) | 126 | > 500 | > 500 | > 500 | > 500 | 3.61 (≈ 8.5 µM) | 20.1 (≈ 47.4 µM) | 20.5 | > 500 | cytotoxicity at 24 h, 25 μg/mL [1]: 24.4%; cytotoxicity at 24 h, 50 μg/mL [1]: 31.3%; cytotoxicity at 24 h, 75 μg/mL [1]: 51.5%; cytotoxicity at 24 h, 100 μg/mL [1]: 66.3%; cytotoxicity at 24 h, 25 μg/mL [2]: 14.1%; cytotoxicity at 24 h, 50 μg/mL [2]: 25.5%; cytotoxicity at 24 h, 75 μg/mL [2]: 42.8%; cytotoxicity at 24 h, 100 μg/mL [2]: 52.5%; cytotoxicity at 24 h, 25 μg/mL [3]: 8.23%; cytotoxicity at 24 h, 50 μg/mL [3]: 12.2%; cytotoxicity at 24 h, 75 μg/mL [3]: 24.9%; cytotoxicity at 24 h, 25 μg/mL ([4]; FL): 16.6%; cytotoxicity at 24 h, 50 μg/mL ([4]; FL): 32.9%; cytotoxicity at 24 h, 75 μg/mL ([4]; FL): 62.6%; cytotoxicity at 24 h, 100 μg/mL ([4]; FL): 76.8%; cytotoxicity at 24 h, 100 μg/mL [4, 5]: 36.4%
3 | CC(=O)OC[C@H]1O[C@@H](Nc2nc(-c3ccc(C)cc3)cc(-c3cccnc3)n2)[C@H](OC(C)=O)[C@@H](OC(C)=O)[C@@H]1OC(C)=O [Compound 17, 2,3,4,6-tetra-O-acetyl-N-[4-(4-methylphenyl)-6-pyridin-3-ylpyrimidin-2-yl]-β-D-glucopyranosylamine] | > 500 | 7.85 (≈ 13.2 µM) | > 500 | > 500 | > 500 | > 500 | > 500 | > 500 | > 500 | 3.09 (≈ 5.21 µM) | > 500 | > 500 | > 500 | > 500 | > 500 | > 500 | 3.86 (≈ 6.51 µM) | > 500 | > 500 | > 500 | 
4 | CC(=O)OC[C@H]1O[C@@H](Nc2nc(-c3ccncc3)cc(-c3ccc(C)cc3)n2)[C@H](OC(C)=O)[C@@H](OC(C)=O)[C@@H]1OC(C)=O [Compound 18, 2,3,4,6-tetra-O-acetyl-N-[4-(4-methylphenyl)-6-pyridin-4-ylpyrimidin-2-yl]-β-D-glucopyranosylamine] | > 500 | 15.5 (≈ 26.2 µM) | > 500 | > 500 | 29.8 (≈ 50.2 µM) | 2.23 (≈ 3.76 µM) | 30.1 (≈ 50.9 µM) | 5.21 | > 500 | 7.77 (≈ 13.1 µM) | > 500 | > 500 | 1.03 (≈ 1.74 µM) | 2.29 (≈ 3.86 µM) | 1.29 | 7.4 (≈ 12.5 µM) | 6.15 (≈ 10.4 µM) | > 500 | > 500 | > 500 | 
